The NIST ThermoML archive (doi:10.1007/s10765-014-1828-5)

Conditions: 101.33 kPa, Liquid, Oscillating crucible method

[F-].[F-].[Mg+2] [magnesium difluoride]
Conditions	viscosity [mPa·s]
1514.7 K	2.416
1534.7 K	2.25
1554.7 K	2.257
1574.1 K	2.09
1613.7 K	2.081
1633.2 K	2.036
1653.4 K	1.98
1673.9 K	1.895
1690.6 K	1.784
1716.7 K	1.763
1731 K	1.758
1751 K	1.68
1773 K	1.632
1792.8 K	1.588
1814.2 K	1.602
1831.8 K	1.552
1853.2 K	1.448

[Ba+2].[F-].[F-] [barium difluoride]
Conditions	viscosity [mPa·s]
1620.2 K	3.56
1642.3 K	3.46
1657.3 K	3.309
1682.7 K	3.165
1697.5 K	2.995
1722.7 K	2.899
1723.2 K	2.856
1738.8 K	2.766
1763.4 K	2.665
1779.4 K	2.57
1802.5 K	2.461
1819.5 K	2.368
1842.3 K	2.3
1860.1 K	2.237
1880.4 K	2.172

[F-].[F-].[Sr+2] [strontium fluoride]
Conditions	viscosity [mPa·s]
1743.4 K	3.023
1749.8 K	2.953
1750.4 K	2.972
1762.4 K	2.915
1769 K	2.866
1780.9 K	2.804
1788.6 K	2.729
1796.9 K	2.698
1810.3 K	2.628
1817.9 K	2.584
1826.5 K	2.561
1833.2 K	2.512
1846.4 K	2.449
1852.2 K	2.401
1854.3 K	2.405
1864.6 K	2.374

[Ca+2].[F-].[F-] [calcium fluoride]
Conditions	viscosity [mPa·s]
1703.3 K	2.932
1703.6 K	2.878
1713.5 K	2.82
1722.7 K	2.77
1732.2 K	2.735
1742.2 K	2.657
1751.6 K	2.623
1760.6 K	2.562
1761.2 K	2.586
1763.4 K	2.571
1770.5 K	2.542
1780.9 K	2.476
1790.5 K	2.432
1800.8 K	2.408
1807.3 K	2.371
1820.5 K	2.34
1832.8 K	2.265
1839.9 K	2.268
1847.7 K	2.223
1858.7 K	2.185
1868.1 K	2.149
